Laboratory results: ChEMBL document CHEMBL1152710, “The design and discovery of novel amide CCR5 antagonists” (Bioorg Med Chem Lett, 2009)
One block for each compound: values may come before it.

What was measured:
[1] = target: T1, C-C chemokine receptor type 5 (Homo sapiens, UniProt P51681); assay: Antagonist activity at human recombinant CCR5 expressed in human HeLa-P4 cells assessed as inhibition of human HeLa-P4 cells binding to HIV1 gp160 expressing CHO cells at 10 uM by cell-cell fusion assay; format: cell-based; set-up: scale not given: the % may be the effect or the level left
Target sequence in this assay (P51681 whole entry, looked up, the tested form may be a part): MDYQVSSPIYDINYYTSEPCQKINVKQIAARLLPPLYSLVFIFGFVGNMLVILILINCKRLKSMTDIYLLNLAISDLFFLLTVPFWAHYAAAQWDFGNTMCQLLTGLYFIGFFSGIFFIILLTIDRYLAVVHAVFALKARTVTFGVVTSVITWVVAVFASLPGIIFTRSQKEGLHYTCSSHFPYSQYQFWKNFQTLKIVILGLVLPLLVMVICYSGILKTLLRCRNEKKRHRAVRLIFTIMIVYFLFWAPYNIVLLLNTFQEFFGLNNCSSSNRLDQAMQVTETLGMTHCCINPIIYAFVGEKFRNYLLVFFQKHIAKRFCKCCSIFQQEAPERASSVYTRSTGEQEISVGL

[2] = target: T1, C-C chemokine receptor type 5; assay: Antagonist activity at human recombinant CCR5 expressed in human HeLa-P4 cells assessed as inhibition of human HeLa-P4 cells binding to HIV1 gp160 expressing CHO cells at 100 nM by cell-cell fusion assay; format: cell-based; set-up: scale not given: the % may be the effect or the level left
Target sequence in this assay (P51681 whole entry, looked up, the tested form may be a part): as above

[3] = target: T1, C-C chemokine receptor type 5; assay: Antagonist activity at human recombinant CCR5 expressed in human HeLa-P4 cells assessed as inhibition of human HeLa-P4 cells binding to HIV1 gp160 expressing CHO cells at 1 uM by cell-cell fusion assay; format: cell-based; set-up: scale not given: the % may be the effect or the level left
Target sequence in this assay (P51681 whole entry, looked up, the tested form may be a part): as above

[4] = Lipophilicity, log D at pH 7.4; format: physicochemical; settings: buffer
[5] = system: Human immunodeficiency virus 1; assay: Antiviral activity against HIV1 Bal infected in human PM1 cells assessed as inhibition of viral replication; format: functional; settings: Human immunodeficiency virus 1, Bal
[6] = Metabolic stability in human liver microsomes assessed as intrinsic clearance at 1 uM after 30 mins; format: ADME, Microsome
[7] = target: T1, C-C chemokine receptor type 5; assay: Displacement of [125]Mip1beta form CCR5 receptor expressed in MIP34.10 cells; format: cell-based
Target sequence in this assay (P51681 whole entry, the tested form may be a part): as the sequence (P51681 whole entry, looked up, the tested form may be a part) above

[8] = target: Voltage-gated inwardly rectifying potassium channel KCNH2 (Homo sapiens, UniProt Q12809); assay: Displacement of [3H]dofetilide form human ERG expressed in HEK239 cells
Sequence of Voltage-gated inwardly rectifying potassium channel KCNH2 (Q12809 whole entry): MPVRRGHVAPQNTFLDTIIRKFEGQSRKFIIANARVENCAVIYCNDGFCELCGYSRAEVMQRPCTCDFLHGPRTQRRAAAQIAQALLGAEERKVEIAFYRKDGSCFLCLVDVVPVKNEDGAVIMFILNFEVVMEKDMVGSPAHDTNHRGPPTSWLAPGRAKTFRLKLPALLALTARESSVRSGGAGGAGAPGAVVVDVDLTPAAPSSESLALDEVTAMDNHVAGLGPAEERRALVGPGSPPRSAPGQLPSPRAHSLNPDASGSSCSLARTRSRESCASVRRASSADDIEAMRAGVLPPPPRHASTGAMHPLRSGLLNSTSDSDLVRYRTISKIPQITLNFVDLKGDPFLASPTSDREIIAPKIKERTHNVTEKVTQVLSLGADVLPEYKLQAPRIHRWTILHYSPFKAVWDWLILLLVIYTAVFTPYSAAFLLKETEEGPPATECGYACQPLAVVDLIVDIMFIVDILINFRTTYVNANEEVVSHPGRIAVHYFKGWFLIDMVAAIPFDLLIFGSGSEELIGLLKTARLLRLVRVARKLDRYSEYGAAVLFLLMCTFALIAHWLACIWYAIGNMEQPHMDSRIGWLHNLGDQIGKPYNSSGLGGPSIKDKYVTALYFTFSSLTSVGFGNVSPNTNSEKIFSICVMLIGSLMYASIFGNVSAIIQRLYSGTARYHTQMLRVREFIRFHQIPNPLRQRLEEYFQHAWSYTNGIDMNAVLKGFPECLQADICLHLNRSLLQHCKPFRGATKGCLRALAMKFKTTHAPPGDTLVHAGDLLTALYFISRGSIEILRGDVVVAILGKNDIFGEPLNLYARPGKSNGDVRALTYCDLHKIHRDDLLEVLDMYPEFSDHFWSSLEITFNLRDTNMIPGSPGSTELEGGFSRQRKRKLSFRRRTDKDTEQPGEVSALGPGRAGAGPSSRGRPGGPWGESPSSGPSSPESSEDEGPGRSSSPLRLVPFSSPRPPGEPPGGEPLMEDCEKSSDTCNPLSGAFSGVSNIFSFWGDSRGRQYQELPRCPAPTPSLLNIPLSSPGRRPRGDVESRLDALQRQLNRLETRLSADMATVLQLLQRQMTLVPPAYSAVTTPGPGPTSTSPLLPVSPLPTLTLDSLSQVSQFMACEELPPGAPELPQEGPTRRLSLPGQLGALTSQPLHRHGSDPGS

Activity [1]: 12%
SMILES: CC(=O)NC(c1ccccc1)C1CCCN(CCNC(=O)c2c(C)cccc2C)C1 (single isomer, unassigned; diastereomer 2)

Activity [1]: 25%
SMILES: Cc1ccnc(C)c1C(=O)N1CCN(C2C[C@H]3CC[C@@H](C2)N3C(c2ccccc2)c2ccccc2)CC1 (mixture of isomers)

Activity [2]: 13%
SMILES: Cc1ccnc(C)c1C(=O)N1CCC(N(C)CCC(c2ccccc2)c2ccccc2)CC1

Activity [3]: 10%
SMILES: Cc1cccc(C)c1C(=O)N1CCC(N2[C@@H]3CC[C@H]2C[C@H](N(Cc2ccccc2)C(=O)C2CC2)C3)CC1

logD [4]: 3.5 | IC90 [5]: 40 nM | microsomal CLint at 1 µM [6]: 205 µL/min/mg
SMILES: Cc1cccc(C)c1C(=O)N1CCC(N2CCC(N(Cc3ccccc3)C(=O)C3CCC3)CC2)CC1

Activity [1]: 0%
SMILES: CC(=O)NC(c1ccccc1)[C@H]1CCN(C2CCN(C(=O)c3c(C)cccc3C)CC2)C1 (single isomer, unassigned; diastereomer 2)

Activity [1]: 20%
SMILES: CC(=O)NC1(c2ccccc2)CCN(C2CCN(C(=O)c3c(C)ccnc3C)CC2)CC1

Activity [1]: 0%
SMILES: CC(=O)NC(c1ccccc1)C1CCCN(C2CCN(C(=O)c3c(C)cccc3C)CC2)C1 (single isomer, unassigned; diastereomer 2)

Activity [2]: 12%
SMILES: Cc1ccnc(C)c1C(=O)N1C2CCC1CN(C1CCN(C(c3ccccc3)c3ccccc3)CC1)C2

Activity [1]: 20%
SMILES: Cc1cccc(C)c1C(=O)N1CCC(N2CCCC(CC(NC(=O)C3CCC3)c3ccccc3)C2)CC1 (mixture of isomers)

Activity [3]: 18%
SMILES: CC(=O)NC(c1ccccc1)[C@H]1CCN(C2CCN(C(=O)c3c(C)cccc3C)CC2)C1 (single isomer, unassigned; diastereomer 1)

Activity [1]: 28%
SMILES: CC(=O)NC(c1ccccc1)C1CCCN(C2CCN(C(=O)c3c(C)cccc3C)CC2)C1 (single isomer, unassigned; diastereomer 1)

Activity [1]: 0%
SMILES: Cc1ccnc(C)c1C(=O)N1CCN(CCC(c2ccccc2)c2ccccc2)CC1

Activity [1]: 19%
SMILES: Cc1cccc(C)c1C(=O)N1CCC(N2CCCC(N(Cc3ccccc3)C(=O)C3CC3)C2)CC1 (racemic)

Activity [2]: 15%
SMILES: Cc1ccnc(C)c1C(=O)NCCN1CCN(C(c2ccccc2)c2ccccc2)CC1

Activity [2]: 6%
SMILES: Cc1ccnc(C)c1C(=O)N1[C@@H]2CC[C@H]1C[C@H](N1CCN(C(c3ccccc3)c3ccccc3)CC1)C2

Activity [1]: 20%
SMILES: CC(=O)NC(c1ccccc1)C1CCCN(CCNC(=O)c2c(C)cccc2C)C1 (single isomer, unassigned; diastereomer 1)

IC50 [7]: 8 nM | logD [4]: 2.6 | IC90 [5]: 2 nM | microsomal CLint at 1 µM [6]: 195 µL/min/mg
SMILES: Cc1cccc(C)c1C(=O)N1CCC(N2CC[C@@H](N(Cc3ccccc3)C(=O)C3CC3)C2)CC1
IC50 [8]: 9.8 µM

Activity [1]: 20%
SMILES: Cc1ccnc(C)c1C(=O)N1CCC(N2CCC(C(Cc3ccccc3)C(=O)NCC3CC3)CC2)CC1 (centres undefined)

Activity [3]: 18%
SMILES: Cc1ccnc(C)c1C(=O)N1CCC(N2CCC(CNC(=O)C3CC3)(Cc3ccccc3)CC2)CC1

Activity [1]: 20%
SMILES: Cc1cccc(C)c1C(=O)N1CCC(N(C)C2CN(C(CNC(=O)C3CCC3)c3ccccc3)C2)CC1 (centres undefined)

Activity [1]: 21%
SMILES: Cc1ccnc(C)c1C(=O)N1[C@@H]2CC[C@H]1C[C@@H](N1CCN(C(c3ccccc3)c3ccccc3)CC1)C2

Activity [1]: 50%
SMILES: CC(=O)NC(CN1CC(N(C)C2CCN(C(=O)c3c(C)cccc3C)CC2)C1)c1ccccc1 (centres undefined)
